Measured values from patent US11464854B2, “Methods and compositions relating to adjuvants” (Children's Medical Center Corporation, priority 2017, dated 2022).

What was measured:
[1] = tested on: influenza hemagglutinin (HA); test: Mouse immunization with influenza hemagglutinin (HA), HA-specific serum Ig by ELISA; format: in vivo, Balb/c mice; conditions: three times, Day 77
human TLR8 [2] = molecular target: T1, human TLR8 (Homo sapiens, UniProt Q9NR97); conditions: HEK293 cells stably expressing human TLR8 (ref. 24); cited from earlier work
T1 construct: host or cells: HEK293 with NF-kB-responsive SEAP reporter
T1 sequence (Q9NR97 27-1041): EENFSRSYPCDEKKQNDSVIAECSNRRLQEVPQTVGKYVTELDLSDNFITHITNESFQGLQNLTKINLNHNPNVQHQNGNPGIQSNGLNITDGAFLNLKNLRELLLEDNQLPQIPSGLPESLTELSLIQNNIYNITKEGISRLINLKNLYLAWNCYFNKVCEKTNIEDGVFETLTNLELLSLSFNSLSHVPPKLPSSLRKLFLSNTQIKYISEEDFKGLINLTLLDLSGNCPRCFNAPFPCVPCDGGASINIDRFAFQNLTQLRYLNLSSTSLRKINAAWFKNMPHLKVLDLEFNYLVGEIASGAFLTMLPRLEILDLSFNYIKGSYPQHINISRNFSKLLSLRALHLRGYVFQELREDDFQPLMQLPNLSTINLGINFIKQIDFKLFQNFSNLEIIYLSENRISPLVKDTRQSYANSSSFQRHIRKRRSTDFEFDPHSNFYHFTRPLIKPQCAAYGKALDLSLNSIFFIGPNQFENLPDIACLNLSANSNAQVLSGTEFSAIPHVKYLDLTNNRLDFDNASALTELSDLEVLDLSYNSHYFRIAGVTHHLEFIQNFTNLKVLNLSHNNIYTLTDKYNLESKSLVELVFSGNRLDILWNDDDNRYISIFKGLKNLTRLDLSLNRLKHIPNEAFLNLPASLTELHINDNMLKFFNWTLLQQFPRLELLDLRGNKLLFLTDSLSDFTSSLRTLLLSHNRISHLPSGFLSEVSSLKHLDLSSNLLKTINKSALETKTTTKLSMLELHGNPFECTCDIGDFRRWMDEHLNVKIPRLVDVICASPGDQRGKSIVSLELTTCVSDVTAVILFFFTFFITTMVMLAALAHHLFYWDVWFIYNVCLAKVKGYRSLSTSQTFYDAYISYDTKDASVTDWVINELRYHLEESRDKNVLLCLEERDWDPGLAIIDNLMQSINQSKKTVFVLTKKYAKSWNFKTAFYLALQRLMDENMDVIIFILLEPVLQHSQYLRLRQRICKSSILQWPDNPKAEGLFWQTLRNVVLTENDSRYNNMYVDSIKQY

[3] = tested on: human neonatal and adult blood; test: Human whole blood assay, cytokine induction (3M-052, PCV13); format: cell-based; conditions: 6 hours, concentration-dependent, each agent alone
From the text: Human blood sample processing and in vitro stimulation. Peripheral blood was collected from healthy adult volunteers, while human newborn cord blood was collected immediately after Cesarean section delivery of the placenta. Births to known HIV-positive mothers were excluded. Human experimentation guidelines of the U.S. Department of Health and Human Services, The Brigham & Women's Hospital, Beth Israel Deaconess Medical Center Boston, and Boston Children's Hospital were observed, following protocols approved by the local institutional review boards. Human blood was anti-coagulated with 20 units/ml pyrogen-free sodium heparin (American Pharmaceutical Partners, Inc.; Schaumberg, Ill.). All blood products were kept at room temperature and processed within 4 hours from collection. […] Additionally, whole blood assay supernatants were analyzed by multiplex cytokine assays (Millipore; Billerica, Mass., USA). […]
TLR agonists and multi-analyte assays. […] Cytokine and chemokine expression profiles in cell culture supernatants and peripheral blood plasma were measured using customized Milliplex human and non-human primate cytokine/chemokine magnetic bead panels (Millipore), respectively. Assays were analyzed on the Luminex® 100/200™ System employing xPOTENT® software (Luminex; Austin, Tex.) and Millipore Milliplex Analyst (version 3.5.5.0).

adult human PBMCs = test: Adult human PBMC stimulation
human TLR8 [4] = molecular target: T1, human TLR8; test: HEK293 NF-kB SEAP reporter assay, human TLR8; format: cell-based
Procedure: Human embryonic kidney (HEK)293 cells expressing human TLR7 or TLR8 with an NF-κB-responsive secreted embryonic alkaline phosphatase (SEAP) reporter gene were obtained from Novus Biologicals (Littleton, Colo.) and Invivogen (San Diego, Calif.), respectively. Cells were maintained in DMEM with 10% HI-FBS and selection antibiotics per the manufacturer's instructions. Cells were plated at 5×10^5 cells/96-well and stimulated with indicated agonist(s) for 24 h. Supernatants were harvested and analyzed for NF-κB/SEAP activation using the QuantiBlue™ kit (Invivogen). Values are expressed as fold change in OD650 over vehicle-only treated samples.

[5] = tested on: newborn cord blood mononuclear cells (CBMCs); test: Human newborn Th1 polarization assay; format: cell-based; conditions: 10 μM, with αCD3, 96 hrs
Procedure: Newborn cord blood mononuclear cells (CBMCs), a mixed mononuclear cell culture which is a largely naïve newborn T cell population, were stimulated with the TLR7/8 agonists in the presence of the polyclonal T cell activator αCD3 for 96 hours. T cell polarization was evaluated by IFNγ levels measured in cell-free supernatants by ELISA.

SMILES | antigen-specific IgG levels (IgG1, IgG2a) ([1]; HA 10 μg with 0.01-1 mg/kg 3M-052 SC) | HA-specific IgG2a Ab production ([1]; added to Alum-adjuvanted HA 10 μg, 0.1 mg/kg 3M-052 SC) | agonist activity, human TLR8 (human TLR8 [2]) | production of TNF [3] | expression of CD123, HLA-D, CD80 and CD86 (adult human PBMCs; 24 h, compared to unstimulated cells, flow cytometry) | cytokine skewing (adult human PBMCs; adult PBMCs) | TLR7 vs. TLR8 selectivity (human TLR8 [4]; HEK293 assay) | potency for hTLR8 (human TLR8 [4]; among six IMQ and OA compounds, SEAP fold change) | IFNγ production by newborn T cells [5]
CCCCCCCCCCCCCCCCCC(=O)NCCCCOn1c(CCCC)nc2c(N)nc3ccccc3c21 [3M-052, N-[4-[(4-amino-2-butyl-1H-imidazo[4,5-c]quinolin-1-yl)oxy]butyl]octadecanamide] | enhances antigen-specific IgG levels | markedly enhances | Dual agonist activity | significantly inducing production of TNF over baseline |  |  |  |  | 
CCCCc1nc2c(N)nc3ccccc3c2n1CCO [CRX-649] |  |  |  |  | increased expression | pro-inflammatory biased | preference for TLR8 | greatest potency | significantly enhanced ability to induce IFNγ production
